The subject of test [1] is Acinetobacter baumannii, ATCC 17978. As to the kind of experiment: MIC testing, broth microdilution in CAMHB. To be noted: Acinetobacter baumannii, ATCC17978, 37° C., 18-20 hr, lowest concentration that completely inhibits visible growth, read-out: Compound MICs, Acinetobacter baumannii, ATCC 17978. It is filed as cell-based. The procedure, abridged:
(§1)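 Broth microdilution in CAMHB: inoculum from a 0.5 McFarland saline suspension diluted 200-fold, with compounds added from 3-fold serial dilutions in DMSO. Plates were incubated at 37 °C, 85% humidity for 18-20 hr, and MIC was scored visually by presence or absence of growth.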
In general terms: In broth dilution the organism is exposed to a series of concentrations in liquid medium.

Test [2] concerns Enterococcus faecalis, ATCC 51575. As to the kind of experiment: MIC testing, broth microdilution in CAMHB. Type of test: cell-based. To be noted: Enterococcus faecalis, ATCC51575, 37° C., 18-20 hr, lowest concentration that completely inhibits visible growth, read-out: Compound MICs, Enterococcus faecalis, ATCC 51575. The essentials: as §1
The subject of test [3] is Escherichia coli, ATCC BAA-198. As to the kind of experiment: MIC testing, broth microdilution in CAMHB. To be noted: Escherichia coli, ATCCBAA198, 37° C., 18-20 hr, lowest concentration that completely inhibits visible growth, read-out: Compound MICs, Escherichia coli, ATCC BAA-198. Type of test: cell-based. The procedure, abridged:
as §1

Test [4] deals with Salmonella typhimurium, CMCC 50115. Put plainly: MIC testing, broth microdilution in CAMHB. It is filed as cell-based. To be noted: Salmonella enterica, 37° C., 18-20 hr, lowest concentration that completely inhibits visible growth, read-out: Compound MICs, Salmonella typhimurium, CMCC 50115. The essentials: as §1
The test system of test [5] is Staphylococcus aureus, NRS384. As to the kind of experiment: MIC testing, broth microdilution in CAMHB. Type of test: cell-based. To be noted: Staphylococcus aureus, NRS384, 37° C., 18-20 hr, lowest concentration that completely inhibits visible growth, read-out: Compound MICs, Staphylococcus aureus, NRS384. The procedure, abridged:
as §1

The test system of another test is P. aeruginosa PA14. As to the kind of experiment: MIC testing against P. aeruginosa PA14, same protocol. The note with it: Pseudomonas aeruginosa, PA14; according to the protocol above; read-out: MICs against P. aeruginosa PA14. Type of test: cell-based, Pseudomonas aeruginosa. The method, then:
For each strain to be tested, made fresh streaks onto CAMHA from −80° C. glycerol stocks. • CAMHB: Dissolved 22 g of the powder per 1 L of purified water. Mixed well. Autoclaved at 121° C. for 10 minutes. Stored at room temperature (RT) for no more than 1 week. • Saline: Dissolved 9 g of the powder per 1 L of purified water. Mixed well. Autoclaved at 121° C. for 30 minutes. Stored at room temperature (RT) for no more than 1 week. Prepared the stock solutions of the tested compounds. For compounds: • a) Dispensed 20 ul compound to the wells in column 1, and 20 ul DMSO to the wells in column 2 to 12; • b) Diluted the compounds by transferring 10 ul compounds from column 1 to 20 ul DMSO in column 2; mix with pipette. • c) Repeated until column 11 to get 3×serial dilutions. Column 12 was the DMSO control. A multichannel pipette was used to deliver 1 μl of the diluted compound into each well of the corresponding daughter plate. Scraped 4-8 single colonies from an agar plate into 5 ml saline in a 14 ml Falcon conical tube. Vortexed the tube to suspend the bacteria. Adjusted the turbidity to ˜0.2 (corresponding to 0.5 McFarland) with an Ultrospec 10 Cell density meter. The strain suspension was diluted 200-fold in CAMHB medium and dispense into a sterile reservoir. A multichannel pipette was then used to deliver 99 μl of the diluted inocula into each well of the corresponding daughter plate. Incubate the daughter plates at 37° C., 85% humidity for 18-20 hr. […] A magnifying mirror device was used for ease of scoring the presence or absence of growth in the wells. 96-well micro-plates were photographed. […]

For one compound, MIC results are on record in US20230295164A1, “COMPOUNDS HAVING ANTIBACTERIAL ACTIVITY” (The Trustees of Princeton University, priority 2020, published 2023).

SMILES strings stand for the structures. Converted amounts (≈) assume the structure as drawn.

Take `Nc1nc(N)c2c(ccc3c2ccn3Cc2ccc(F)cc2)n1` [Compound 10]: the MIC in test [1] was 0.79 µg/mL (≈ 2.57 µM); in test [2] it was 0.01 µg/mL (≈ 0.0325 µM); in test [3], 2.37 µg/mL (≈ 7.71 µM); in test [4], 0.088 µg/mL (≈ 0.286 µM); in test [5], 0.088 µg/mL (≈ 0.286 µM); in the test with P. aeruginosa PA14, 25 µg/mL (≈ 81.3 µM).
